Data taken from patent US10407467B2, “Polymyxin derivatives and their use in combination therapy together with different antibiotics” (priority 2013, dated 2019).
Numbered stars: 1 amine (or outer) side, 2 acyl side, 3 side chain; on linkers, the order of the positions; unused ones are H or OH. Bridge positions count the residues as written; N and C are the ends. Square brackets hold non-standard residues; d marks the D form. Peptide text beside a SMILES is read from it. Achc(trans-4) = O=C([C@H]1CC[C@H](N[*:1])CC1)[*:2]; Dab = NCC[C@H](N)C(=O)O

What was measured:
Format in all cases: cell-based
Acinetobacter baumannii [1] = assay: MIC, sole activity (no second agent); conditions: Second Agent none (Table 7B, by row order)
Outline: (§1)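 Compound tested without a second agent in cation-adjusted MHB, up to four strains per species, inoculum at 0.5 McFarland from colonies grown 18-24 h on Mueller-Hinton agar. Run in duplicate, invalid beyond 2-fold disagreement, lower duplicate or modal repeat value given, expressed relative to Polymyxin B.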

Pseudomonas aeruginosa [2] = assay: MIC, sole activity (no second agent)
Outline: as §1

Escherichia coli [3] = assay: MIC, sole activity (no second agent)
Outline: as §1

Klebsiella pneumoniae [4] = assay: MIC, sole activity (no second agent)
Outline: as §1

Acinetobacter baumannii [5] = assay: MIC, compound in combination with a second agent (broth microdilution)
Outline: (§2)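 Broth microdilution with inoculum from 18-24 h Mueller-Hinton agar colonies adjusted to 0.5 McFarland, up to four strains per species. Compound combined 1:1 w/w with second agent (e.g. rifampicin), mass as salt form; MIC is total drug concentration. Duplicates, lower value reported if within 2-fold; modal value for repeat tests.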

Pseudomonas aeruginosa [6] = assay: as above
Outline: as §2

Escherichia coli [7] = assay: as above
Outline: as §2

Klebsiella pneumoniae [8] = assay: as above
Outline: as §2

[9] = Second Agent none (Table 7B, by row order)
[10] = 1:1 combination with Ciprofloxacin (by row order), total drug concentration
[11] = 1:1 combination with Tigecycline, total drug concentration
[12] = 1:1 combination with Ciprofloxacin, total drug concentration
[13] = 1:1 combination with Vancomycin, total drug concentration

- MIC A. baumannii NCTC 13424 (Acinetobacter baumannii [1]): 4 micrograms/mL
- MIC P. aeruginosa CCUG 59626 (Pseudomonas aeruginosa [2]; P. aeruginosa CCUG 59626, second agent none): 0.25 micrograms/mL
- MIC P. aeruginosa ATCC 27853 (Pseudomonas aeruginosa [2]; [9]): 0.125 micrograms/mL
- MIC P. aeruginosa CCUG 59626 (Pseudomonas aeruginosa [2]; [9]): 0.25 micrograms/mL
- MIC P. aeruginosa CCUG 59626 (Pseudomonas aeruginosa [2]; Second Agent none (Table 7C)): 0.25 micrograms/mL
- MIC P. aeruginosa ATCC 27853 (Pseudomonas aeruginosa [2]; in the absence of Rifampicin, strain ATCC27853): 0.125 micrograms/mL
- MIC P. aeruginosa CCUG 59626 (Pseudomonas aeruginosa [2]; in the absence of Rifampicin, strain CCUG 59626): 0.25 micrograms/mL
- MIC E. coli CCUG 59342 (Escherichia coli [3]; Second Agent none (Table 7B)): 0.25 micrograms/mL
- MIC E. coli NCTC9001 (Escherichia coli [3]; Second Agent none (Table 7B)): 16 micrograms/mL
- MIC E. coli ATCC25922 (Escherichia coli [3]; in the absence of Rifampicin, strain ATCC25922): 2 micrograms/mL
- MIC E. coli NCTC9001 (Escherichia coli [3]; in the absence of Rifampicin, strain NCTC9001): 16 micrograms/mL
- MIC K. pneumoniae CCUG 59348 (Klebsiella pneumoniae [4]; K. pneumoniae CCUG 59348, second agent none): >32 micrograms/mL
- MIC K. pneumoniae NCTC 13442 (Klebsiella pneumoniae [4]; K. pneumoniae NCTC 13442, second agent none): >32 micrograms/mL
- MIC K. pneumoniae CCUG 59348 (Klebsiella pneumoniae [4]; Second Agent none (Table 7A)): >32 microgram/mL
- MIC K. pneumoniae CCUG 59626 (Klebsiella pneumoniae [4]; Second Agent none (Table 7A)): 0.25 microgram/mL
- MIC K. pneumoniae NCTC 13442 (Klebsiella pneumoniae [4]; Second Agent none (Table 7A)): >32 microgram/mL
- MIC K. pneumoniae CCUG 59348 (Klebsiella pneumoniae [4]; Second Agent none (Table 7B)): >32 micrograms/mL
- MIC K. pneumoniae NCTC 13442 (Klebsiella pneumoniae [4]; Second Agent none (Table 7B)): >32 micrograms/mL
- MIC K. pneumoniae ATCC 4352 (Klebsiella pneumoniae [4]; [9]): 0.125 micrograms/mL
- MIC K. pneumoniae CCUG 59348 (Klebsiella pneumoniae [4]; Second Agent none (Table 7C)): >32 micrograms/mL
- MIC K. pneumoniae NCTC 13442 (Klebsiella pneumoniae [4]; Second Agent none (Table 7C)): >32 micrograms/mL
- MIC K. pneumoniae ATCC 4352 (Klebsiella pneumoniae [4]; in the absence of Rifampicin, strain ATCC 4352): 0.125 micrograms/mL
- MIC K. pneumoniae ATCC-BAA2146 (Klebsiella pneumoniae [4]; in the absence of Rifampicin, strain ATCC-BAA2146): 8 micrograms/mL
- MIC K. pneumoniae CCUG-59348 (Klebsiella pneumoniae [4]; in the absence of Rifampicin, strain CCUG-59348): >32 micrograms/mL
- MIC K. pneumoniae NCTC-13438 (Klebsiella pneumoniae [4]; in the absence of Rifampicin, strain NCTC-13438): 32 micrograms/mL
- MIC A. baumannii ATCC BAA-747 (Acinetobacter baumannii [5]; 1:1 (wt:wt) combination with Rifampicin, MIC = total drug concentration, strain ATCC BAA-747): 0.125 micrograms/mL
- MIC A. baumannii CCUG57249 (Acinetobacter baumannii [5]; 1:1 (wt:wt) combination with Rifampicin, MIC = total drug concentration, strain CCUG57249): <0.06 micrograms/mL
- MIC A. baumannii NCTC 13423 (Acinetobacter baumannii [5]; 1:1 (wt:wt) combination with Rifampicin, MIC = total drug concentration, strain NCTC 13423): ≤0.06 micrograms/mL
- MIC A. baumannii NCTC 13424 (Acinetobacter baumannii [5]; 1:1 (wt:wt) combination with Rifampicin, MIC = total drug concentration, strain NCTC 13424): <0.06 micrograms/mL
- MIC A. baumannii NCTC 13424 (Acinetobacter baumannii [5]; [10]): 0.5 micrograms/mL
- MIC P. aeruginosa ATCC 27853 (Pseudomonas aeruginosa [6]; 1:1 (wt:wt) combination with Rifampicin, MIC = total drug concentration, strain ATCC 27853): 0.125 micrograms/mL
- MIC P. aeruginosa ATCC CRM-9027 (Pseudomonas aeruginosa [6]; 1:1 (wt:wt) combination with Rifampicin, MIC = total drug concentration, strain ATCC CRM-9027): 0.125 micrograms/mL
- MIC P. aeruginosa ATCC-47 (Pseudomonas aeruginosa [6]; 1:1 (wt:wt) combination with Rifampicin, MIC = total drug concentration, strain ATCC-47): 0.125 micrograms/mL
- MIC P. aeruginosa CCUG 59626 (Pseudomonas aeruginosa [6]; 1:1 (wt:wt) combination with Rifampicin, MIC = total drug concentration, strain CCUG 59626): 0.125 micrograms/mL
- MIC P. aeruginosa ATCC 27853 (Pseudomonas aeruginosa [6]; [10]): ≤0.06 micrograms/mL
- MIC P. aeruginosa CCUG 59626 (Pseudomonas aeruginosa [6]; [10]): 0.5 micrograms/mL
- MIC P. aeruginosa CCUG 59626 (Pseudomonas aeruginosa [6]; [11]): 0.25 micrograms/mL
- MIC P. aeruginosa CCUG 59626 (Pseudomonas aeruginosa [6]; P. aeruginosa CCUG 59626, 1:1 combination with Meropenem, total drug concentration): 0.5 micrograms/mL
- MIC E. coli ATCC25922 (Escherichia coli [7]; 1:1 (wt:wt) combination with Rifampicin, MIC = total drug concentration, strain ATCC25922): ≤0.06 micrograms/mL
- MIC E. coli NCTC9001 (Escherichia coli [7]; 1:1 (wt:wt) combination with Rifampicin, MIC = total drug concentration, strain NCTC9001): 0.125 micrograms/mL
- MIC E. coli ATCC25922 (Escherichia coli [7]; [12]): ≤0.06 micrograms/mL
- MIC E. coli CCUG 59342 (Escherichia coli [7]; [12]): 0.5 micrograms/mL
- MIC E. coli NCTC9001 (Escherichia coli [7]; [12]): ≤0.06 micrograms/mL
- MIC E. coli NCTC9001 (Escherichia coli [7]; [11]): 16 micrograms/mL
- MIC E. coli NCTC9001 (Escherichia coli [7]; [13]): 16 microgram/mL
- MIC E. coli NCTC9001 (Escherichia coli [7]; E. coli NCTC9001, 1:1 combination with Meropenem, total drug concentration): 0.25 micrograms/mL
- MIC K. pneumoniae ATCC 4352 (Klebsiella pneumoniae [8]; 1:1 (wt:wt) combination with Rifampicin, MIC = total drug concentration, strain ATCC 4352): 0.125 micrograms/mL
- MIC K. pneumoniae ATCC-BAA-2146 (Klebsiella pneumoniae [8]; 1:1 (wt:wt) combination with Rifampicin, MIC = total drug concentration, strain ATCC-BAA-2146): 0.125 micrograms/mL
- MIC K. pneumoniae CCUG-59348 (Klebsiella pneumoniae [8]; 1:1 (wt:wt) combination with Rifampicin, MIC = total drug concentration, strain CCUG-59348): 2 micrograms/mL
- MIC K. pneumoniae NCTC 13438 (Klebsiella pneumoniae [8]; 1:1 (wt:wt) combination with Rifampicin, MIC = total drug concentration, strain NCTC 13438): 0.25 micrograms/mL
- MIC K. pneumoniae ATCC 4352 (Klebsiella pneumoniae [8]; [10]): ≤0.06 micrograms/mL
- MIC K. pneumoniae CCUG 59348 (Klebsiella pneumoniae [8]; [12]): >32 micrograms/mL
- MIC K. pneumoniae NCTC 13442 (Klebsiella pneumoniae [8]; [12]): 1 micrograms/mL
- MIC K. pneumoniae CCUG 59348 (Klebsiella pneumoniae [8]; [11]): >32 micrograms/mL
- MIC K. pneumoniae NCTC 13442 (Klebsiella pneumoniae [8]; [11]): 16 micrograms/mL
- MIC K. pneumoniae CCUG 59348 (Klebsiella pneumoniae [8]; [13]): >32 microgram/mL
- MIC K. pneumoniae CCUG 59626 (Klebsiella pneumoniae [8]; [13]): 0.25 microgram/mL
- MIC K. pneumoniae NCTC 13442 (Klebsiella pneumoniae [8]; [13]): 32 microgram/mL
- MIC K. pneumoniae ATCC BAA-1706 (Klebsiella pneumoniae [8]; K. pneumoniae ATCC BAA-1706, 1:1 combination with Meropenem, total drug concentration): 4 micrograms/mL
- MIC K. pneumoniae CCUG 59348 (Klebsiella pneumoniae [8]; K. pneumoniae CCUG 59348, 1:1 combination with Meropenem, total drug concentration): >32 micrograms/mL
- MIC K. pneumoniae NCTC 13442 (Klebsiella pneumoniae [8]; K. pneumoniae NCTC 13442, 1:1 combination with Meropenem, total drug concentration): 16 micrograms/mL
Structure (SMILES): CC(C)C[C@@H]1NC(=O)[C@@H](Cc2ccccc2)NC(=O)[C@H](CCN)NC(=O)[C@@H](NC(=O)[C@H](CCN)NC(=O)[C@@H](NC(=O)[C@H]2CC[C@H](N)CC2)[C@@H](C)O)CCNC(=O)[C@H]([C@@H](C)O)NC(=O)[C@H](CCN)NC(=O)[C@H](CCN)NC1=O [Example 17, Trans-4-aminocyclohexane-carbonyl polymyxin B nonapeptide] (H-[Achc(trans-4)]T[Dab][Dab][Dab][dF]L[Dab][Dab]T; lactam 4-C)
